Experimental data reported in article PMC12635268, “Novel antimicrobial peptides and peptide-microbiome crosstalk in Appalachian salamander skin” (NPJ Biofilms and Microbiomes, 2025).
≈ marks a conversion by molar mass, not a printed value. Ends that are not written are not given here. Peptide text beside a SMILES is read from it.

How the values were obtained:
A. baumannii 5075 = conditions: for Bacterial MIC: Week 2 (12/14/2023)
P. aeruginosa PA01 = test: microbe, parasite or virus in culture; type: cell-based; conditions: for Bacterial MIC: P. aeruginosa 15692 (PAO1), Week 2 (12/14/2023)
Experimental: (§1) Antimicrobial susceptibility testing of the 20 synthesized peptides against 17 bacterial strains of clinical relevance in the ESKAPEE panel was conducted using minimum inhibitory concentration (MIC) assays following the broth microdilution method outlined by Parker et al.[91]. The ESKAPEE panel is comprised of fourteen American Type Culture Collection (ATCC) strains and three Multidrug Resistant Organism Repository and Surveillance Network (MRSN) bacterial strains. These strains represent at least one drug-susceptible strain and one drug-resistant strain for each bacterium to assess drug efficacy across various resistance mechanisms. This panel is comprised of the following bacterial species and strains: E. faecium (ATCC 19434, ATCC 49224), S. aureus (ATCC 25923, ATCC 43300), K. pneumoniae (ATCC 700603, ATCC 13883, MRSN 1320), A. baumannii (ATCC 17978, ATCC 19606, MRSN 959), P. aeruginosa (ATCC 15692, ATCC 27853, MRSN 5519), E. cloacae (ATCC 13047, ATCC 35549), and E. coli (ATCC 35218, ATCC 43888). Bacteria were grown in cation-adjusted Mueller-Hinton broth (CAMHB) to achieve a final inoculum of 1 × 10⁵ CFU/mL. CAMHB is selected for its batch-to-batch reproducibility, low levels of antimicrobial inhibitors, and ability to support the growth of most bacterial pathogens.
(§2) Briefly, lyophilized peptides were dissolved in 0.2% TFA + 0.4% BSA in water to 2.56 mg/mL, ultrasonicated for 20 min, diluted 10-fold into CAMHB, and then serially diluted 2-fold in 0.02% TFA + 0.04% BSA in CAMHB and assayed at a concentration of 0.25 to 128 μg/mL. Assays were set up using the Tecan Freedom EVO liquid handling robot and software (Tecan, Switzerland) with 50 μL of bacterial inoculum and 50 μL of peptide transferred into round-bottom 96-well microtiter plates. Each plate assay was performed in duplicate and incubated at 37 °C for 20 h without agitation. Bacterial growth was assessed using the BIOMIC V3 Image Analysis system (Giles Scientific, USA) and the MIC values were determined visually according to the Clinical and Laboratory Standards Institute (CLSI) guidelines.

P. aeruginosa PA01 (Si) = test: microbe, parasite or virus in culture; type: cell-based; conditions: Si
Description: Supplement 41522_2025_837_MOESM13_ESM.xlsx, sheet "Table_S13_ESKAPEE-MIC" | column: Bacterial MIC (µg/mL)

[1] = design: method as in Biomatik (vendor); conditions: 1.0 mg peptide in 1.0 ml solvent; peptides synthesized by Biomatik; ref Biomatik (vendor); cited from earlier work
E. cloacae ATCC 35549 = test: microbe, parasite or virus in culture; conditions: for Bacterial MIC: ATCC 35549, 20 h
Experimental: as §1, §2

A. baumannii ATCC 17978 = test: microbe, parasite or virus in culture; conditions: for Bacterial MIC: ATCC 17978, 20 h
Experimental: as §1, §2

P. aeruginosa MRSN 5519 = test: microbe, parasite or virus in culture; conditions: for Bacterial MIC: MRSN 5519, 20 h
Experimental: as §1, §2

E. faecium ATCC 49224 = test: microbe, parasite or virus in culture; conditions: for Bacterial MIC: ATCC 49224, 20 h
Experimental: as §1, §2

E. cloacae ATCC 13047 = test: microbe, parasite or virus in culture; conditions: for Bacterial MIC: ATCC 13047, 20 h
Experimental: as §1, §2

E. coli ATCC 43888 = test: microbe, parasite or virus in culture; conditions: ATCC 43888, 20 h
Experimental: as §1, §2

S. aureus ATCC 43300 = test: microbe, parasite or virus in culture; conditions: S. aureus 43300; for Bacterial MIC: Week 2 (12/14/2023)
Experimental: as §1, §2

E. faecium ATCC 19434 = test: microbe, parasite or virus in culture; conditions: for Bacterial MIC: ATCC 19434, 20 h
Experimental: as §1, §2

A. baumannii ATCC 19606 = test: microbe, parasite or virus in culture; conditions: for Bacterial MIC: ATCC 19606, 20 h
Experimental: as §1, §2

P. aeruginosa ATCC 27853 = test: microbe, parasite or virus in culture; conditions: ATCC 27853, 20 h
Experimental: as §1, §2

[2] = tested on: K. pneumoniae ATCC 700603; test: microbe, parasite or virus in culture; conditions: K. pneumoniae 700603; for Bacterial MIC: Week 2 (12/14/2023)
Experimental: as §1, §2

S. aureus ATCC 25923 = test: microbe, parasite or virus in culture; conditions: ATCC 25923, 20 h
Experimental: as §1, §2

E. coli ATCC 35218 = test: microbe, parasite or virus in culture
Experimental: as §1, §2

K. pneumoniae ATCC 13883 = test: microbe, parasite or virus in culture; conditions: for Bacterial MIC: ATCC 13883, 20 h
Experimental: as §1, §2

K. pneumoniae 4640 = conditions: for Bacterial MIC: 4640, 20 h
[3] = CAMHB, 1 × 10⁵ CFU/mL, 0.25 to 128 μg/mL, 37 °C 20 h, duplicate, read visually (CLSI)
[4] = E. coli 35218, Week 2 (12/14/2023)

| Compound | Bacterial MIC (P. aeruginosa PA01 (Si)) [µg/mL] | Suggest solvent (solubility) [1] | Bacterial MIC (E. coli ATCC 43888) [µg/mL] | Bacterial MIC (S. aureus ATCC 25923) [µg/mL] | Bacterial MIC (A. baumannii 5075) [µg/mL] | Bacterial MIC (P. aeruginosa PA01) [µg/mL] | Bacterial MIC (E. cloacae ATCC 35549) [µg/mL] | Bacterial MIC (A. baumannii ATCC 17978) [µg/mL] | Bacterial MIC (P. aeruginosa MRSN 5519) [µg/mL] | Bacterial MIC (E. faecium ATCC 49224) [µg/mL] | Bacterial MIC (E. cloacae ATCC 13047) [µg/mL] | Bacterial MIC (S. aureus ATCC 43300) [µg/mL] | Bacterial MIC (E. faecium ATCC 19434) [µg/mL] | Bacterial MIC (A. baumannii ATCC 19606) [µg/mL] | Bacterial MIC (P. aeruginosa ATCC 27853) [µg/mL] | Bacterial MIC [2] [µg/mL] | Bacterial MIC (E. coli ATCC 35218; [4]) [µg/mL] | Bacterial MIC (K. pneumoniae ATCC 13883) [µg/mL] | Bacterial MIC (K. pneumoniae 4640) [µg/mL] | also measured |
| --- | --- | --- | --- | --- | --- | --- | --- | --- | --- | --- | --- | --- | --- | --- | --- | --- | --- | --- | --- | --- |
| CC[C@H](C)[C@H](NC(=O)[C@H](CO)NC(=O)[C@H](Cc1ccc(O)cc1)NC(=O)[C@H](CS)NC(=O)CNC(=O)[C@H](C)NC(=O)[C@H](CCCNC(=N)N)NC(=O)[C@H](CCCNC(=N)N)NC(=O)[C@H](Cc1ccc(O)cc1)NC(=O)[C@H](CS)NC(=O)[C@H](CCCCN)NC(=O)[C@H](Cc1c[nH]c2ccccc12)NC(=O)[C@@H]1CCCN1C(=O)[C@H](CCCNC(=N)N)NC(=O)[C@H](C)NC(=O)[C@H](CCCNC(=N)N)NC(=O)[C@H](CCCNC(=N)N)NC(=O)[C@@H](NC(=O)[C@H](CCCNC(=N)N)NC(=O)[C@@H](NC(=O)[C@H](CCCNC(=N)N)NC(=O)[C@H](CCCCN)NC(=O)[C@@H](N)CO)[C@@H](C)O)C(C)C)C(=O)N[C@H](C(=O)NCC(=O)N[C@@H](CCSC)C(=O)N[C@@H](Cc1ccccc1)C(=O)N[C@@H](CCCCN)C(=O)N[C@@H](CCCCN)C(=O)N[C@@H](CO)C(=O)O)[C@@H](C)CC [Pcin-CATH5] (H-SKRTRVRRARPWKCYRRAGCYSIIGMFKKS-OH; N-terminus and C-terminus assumed) | 8 to 16 | 1.0mg peptide soluble in 1.0ml H2O | 16 | 128 |  |  |  |  |  |  |  |  |  |  |  |  |  |  |  | MIC (A. baumannii 5075; [3]): 4 µg/mL (≈ 1.09 µM); MIC (P. aeruginosa PA01; 20 h): 16 µg/mL (≈ 4.37 µM); MIC (E. cloacae ATCC 35549; E. cloacae 35549, CAMHB, 1 × 10⁵ CFU/mL, 0.25 to 128 μg/mL, 37 °C 20 h, duplicate, read visually (CLSI)): >128 µg/mL; MIC (A. baumannii ATCC 17978; A. baumannii 17978, CAMHB, 1 × 10⁵ CFU/mL, 0.25 to 128 μg/mL, 37 °C 20 h, duplicate, read visually (CLSI)): 8 µg/mL (≈ 2.18 µM); MIC (P. aeruginosa MRSN 5519; P. aeruginosa 5519, CAMHB, 1 × 10⁵ CFU/mL, 0.25 to 128 μg/mL, 37 °C 20 h, duplicate, read visually (CLSI)): >128 µg/mL; MIC (E. faecium ATCC 49224; E. faecium 49224, CAMHB, 1 × 10⁵ CFU/mL, 0.25 to 128 μg/mL, 37 °C 20 h, duplicate, read visually (CLSI)): 64 µg/mL (≈ 17.5 µM); MIC (E. cloacae ATCC 13047; E. cloacae 13047, CAMHB, 1 × 10⁵ CFU/mL, 0.25 to 128 μg/mL, 37 °C 20 h, duplicate, read visually (CLSI)): >128 µg/mL; MIC (S. aureus ATCC 43300; [3]): 64 µg/mL (≈ 17.5 µM); MIC (E. faecium ATCC 19434; E. faecium 19434, CAMHB, 1 × 10⁵ CFU/mL, 0.25 to 128 μg/mL, 37 °C 20 h, duplicate, read visually (CLSI)): 64 µg/mL (≈ 17.5 µM); MIC (A. baumannii ATCC 19606; A. baumannii 19606, CAMHB, 1 × 10⁵ CFU/mL, 0.25 to 128 μg/mL, 37 °C 20 h, duplicate, read visually (CLSI)): 8 µg/mL (≈ 2.18 µM); MIC (P. aeruginosa ATCC 27853): >128 µg/mL; MIC [2, 3]: >128 µg/mL; MIC (S. aureus ATCC 25923): >128 µg/mL; Bacterial MIC (E. coli ATCC 35218; ATCC 35218, 20 h): 16 to 32 µg/mL; MIC (E. coli ATCC 35218; ATCC 35218, 20 h): 32 µg/mL (≈ 8.74 µM); MIC (K. pneumoniae ATCC 13883; K. pneumoniae 13883, CAMHB, 1 × 10⁵ CFU/mL, 0.25 to 128 μg/mL, 37 °C 20 h, duplicate, read visually (CLSI)): >128 µg/mL; MIC (K. pneumoniae 4640; K. pneumoniae 4640, CAMHB, 1 × 10⁵ CFU/mL, 0.25 to 128 μg/mL, 37 °C 20 h, duplicate, read visually (CLSI)): >128 µg/mL |
| KEGCKEIKGP [TrPr-Eb20] | >128.000 | 1.0mg peptide soluble in 1.0ml H2O | >128.000 | >128.000 | >128.000 | >128.000 | >128.000 | >128.000 | >128.000 | >128.000 | >128.000 | >128.000 | >128.000 | >128.000 | >128.000 | >128.000 | >128.000 | >128.000 | >128.000 |  |
| DVGTQGLSPLR [PrAd-Eb22] | >128.000 | 1.0mg peptide soluble in 1.0ml H2O | >128.000 | >128.000 | >128.000 | >128.000 | >128.000 | >128.000 | >128.000 | >128.000 | >128.000 | >128.000 | >128.000 | >128.000 | >128.000 | >128.000 | >128.000 | >128.000 | >128.000 |  |
| RVPPGFSPFR [PrAd-Eb28] | >128.000 | 1.0mg peptide soluble in 1.0ml H2O | >128.000 | >128.000 | >128.000 | >128.000 | >128.000 | >128.000 | >128.000 | >128.000 | >128.000 | >128.000 | >128.000 | >128.000 | >128.000 | >128.000 | >128.000 | >128.000 | >128.000 |  |
